The conditions of data set [1]: cited from earlier work; for water solubility relative to aglyconic form of isoflavones: derivatives reported in several studies; for solubility: in water, stated in text without method; for solubility in water (in words): qualitative statement (b7: according to Merck Index).
Data set [2] is described as follows: Solubility of isoflavone phosphate conjugates and aglycones in DI water (25° C.). The data set is classed as physicochemical. The settings on record: for solubility relative to genistein and daidzein: 25° C. water, phosphate vs aglycone; for Solubility enhancement ratio: phosphate conjugate vs aglycone. The source says:
This can increase the application of isoflavones in pharmaceuticals, food, and cosmetics.

The mark [3] stands for this setting: DI water, 25° C., read-out: Water solubility.

These results are taken from patent publication US10421768B2, “Method of biotransformation of benzopyrone compounds into the corresponding phosphate-conjugated derivatives” (National Taiwan University, priority 2016, dated 2019).

≈ marks a conversion by molar mass, not a printed value. Where two headings read alike, the source gives them in different places.

`O=c1c(-c2ccc(O)cc2)coc2cc(OS(=O)(=O)O)ccc12` [daidzein-7-O-sulfate]: the “water solubility relative to aglyconic form of isoflavones” value in data set [1] is “higher water solubility”.
With `COc1ccc([C@@H]2CC(=O)c3c(O)cc(O)cc3O2)cc1O` [hesperetin], in data set [1], the solubility was 1.4 µg/mL (≈ 4.63 µM).
With `O=c1c(-c2ccc(O)cc2)coc2c(O)c(O)cc(O)c12` [8-hydroxy genistein], the “water solubility relative to aglyconic form of isoflavones” value in data set [1] is reported as “higher water solubility”.
For the molecule `O=C1C[C@@H](c2ccc(O)cc2)Oc2cc(O)cc(O)c21` [Naringenin, naringenin], the solubility in data set [1] is 45 µg/mL (≈ 165 µM).
`O=c1c(-c2ccc(O)cc2)coc2cc(OP(=O)(O)O)ccc12` [Daidzein-7-O-phosphate, daidzein-7-O-phosphate]: the “solubility relative to genistein and daidzein” value in data set [2] was “ten million times higher”. For the same molecule, in data set [2] (setting [3]), the solubility was 179000 µg/mL (≈ 536000 µM). The Solubility enhancement ratio in data set [2] (DI water, 25° C.) was 1.3 × 10^5.
Consider `O=c1c(-c2ccc(O)cc2O)coc2cc(O)cc(O)c12` [2′-hydroxy genistein], for which, in data set [1], the “water solubility relative to aglyconic form of isoflavones” value is “higher water solubility”.
For `O=c1c(-c2ccc(O)cc2)coc2cc(O)ccc12` [Daidzein, daidzein], the solubility was 1.36 µg/mL (≈ 5.35 µM) in data set [2] (25 °C, water) and 8.2 µg/mL (≈ 32.3 µM) in data set [1]. For the same molecule, the “solubility in water (in words)” value in data set [1] is “practically insoluble in water”.
On to `O=c1c(-c2ccc(O)cc2)coc2cc(OP(=O)(O)O)cc(O)c12` [Genistein-7-O-phosphate, genistein-7-O-phosphate], for which the “solubility relative to genistein and daidzein” value in data set [2] is on record as “ten million times higher”. Moreover, in data set [2] (setting [3]), the solubility stood at 100000 µg/mL (≈ 286000 µM). Moreover, the Solubility enhancement ratio in data set [2] (DI water, 25° C.) was 1.2 × 10^5.
`O=c1c(O)c(-c2ccc(O)cc2)oc2cc(O)cc(O)c12` [Kaempferol, kaempferol]: the “solubility in water (in words)” value in data set [1] is listed as “barely insoluble in water”.
Turning to `O=c1c(-c2ccc(O)cc2)coc2cc(O)cc(O)c12` [Genistein, genistein], in data set [2] (setting [3]), the solubility was found to be 0.82 µg/mL (≈ 3.03 µM). For the same molecule, in data set [1], the solubility is 0.8 µg/mL (≈ 2.96 µM) and the “solubility in water (in words)” value is “practically insoluble in water”.
Consider `O=c1c(-c2ccc(O)cc2)coc2cc(O)c(O)c(O)c12` [6-hydroxy genistein], for which the “water solubility relative to aglyconic form of isoflavones” value in data set [1] is reported as “higher water solubility”.
For `O=c1c(O)c(-c2ccc(O)c(O)c2)oc2cc(O)cc(O)c12` [quercetin], the “solubility in water (in words)” value in data set [1] is reported as “barely insoluble in water”.
